We go through two compounds from PMC3639963, “A New Class of Small Molecule Inhibitor of BMP Signaling” (PLoS ONE, 2013).

Holding throughout (test): Nanosyn kinase profiling
Common to all, as to format: biochemical
Conditions in all cases: read-out: Percentage inhibition; for inhibition at 0.1 µM: 0.1 µM inhibitor; for inhibition at 1 µM: 1 µM inhibitor

Experiment [1] deals with T1, NEK6 (Homo sapiens, UniProt Q9HC98).
T1 construct: purchased Nanosyn (enzymatic panel); SGC in-house recombinant human kinases (DSF panel); Invitrogen (ALK1-6)
The method in brief:
(§1)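 Percent inhibition of each kinase was measured with the inhibitor at 0.1 µM and at 1 µM, as part of a 200-kinase human selectivity panel.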

The target in experiment [2] is T2, NEK9 (Homo sapiens, UniProt Q8TD19).
T2 construct: purchased Nanosyn (enzymatic panel); SGC in-house recombinant human kinases (DSF panel); Invitrogen (ALK1-6)
T2 sequence (Q8TD19 1-979): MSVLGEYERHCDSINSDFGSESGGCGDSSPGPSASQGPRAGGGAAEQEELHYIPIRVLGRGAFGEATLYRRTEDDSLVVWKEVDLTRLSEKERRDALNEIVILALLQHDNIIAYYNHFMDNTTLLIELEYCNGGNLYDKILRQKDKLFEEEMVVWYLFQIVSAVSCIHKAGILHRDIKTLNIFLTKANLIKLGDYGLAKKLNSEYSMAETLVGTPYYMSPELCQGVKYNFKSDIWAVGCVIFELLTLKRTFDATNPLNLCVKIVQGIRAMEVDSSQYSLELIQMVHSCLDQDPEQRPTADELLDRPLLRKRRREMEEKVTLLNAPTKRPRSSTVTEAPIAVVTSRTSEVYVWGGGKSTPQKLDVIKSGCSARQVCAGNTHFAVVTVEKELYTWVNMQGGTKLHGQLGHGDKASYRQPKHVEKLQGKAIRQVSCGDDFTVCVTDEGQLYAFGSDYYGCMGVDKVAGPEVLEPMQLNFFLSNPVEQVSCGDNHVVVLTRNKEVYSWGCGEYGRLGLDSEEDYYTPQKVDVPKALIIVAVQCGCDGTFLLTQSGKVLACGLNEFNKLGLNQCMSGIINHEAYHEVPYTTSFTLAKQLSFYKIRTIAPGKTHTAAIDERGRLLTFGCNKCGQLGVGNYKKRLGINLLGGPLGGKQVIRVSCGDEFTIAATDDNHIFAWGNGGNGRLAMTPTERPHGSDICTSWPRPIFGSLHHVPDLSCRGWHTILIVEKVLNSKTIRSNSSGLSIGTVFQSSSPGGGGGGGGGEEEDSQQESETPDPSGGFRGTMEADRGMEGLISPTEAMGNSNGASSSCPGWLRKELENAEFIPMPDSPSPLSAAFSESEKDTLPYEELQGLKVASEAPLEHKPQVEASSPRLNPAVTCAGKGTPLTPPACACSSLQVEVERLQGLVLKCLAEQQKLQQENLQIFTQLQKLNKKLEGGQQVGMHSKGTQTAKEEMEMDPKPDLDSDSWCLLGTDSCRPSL
The essentials:
as §1

Experiment [3] has as its target T3, PHKγ1 (Homo sapiens, UniProt Q16816).
T3 construct: purchased Nanosyn (enzymatic panel); SGC in-house recombinant human kinases (DSF panel); Invitrogen (ALK1-6)
The method in brief:
as §1

The target in experiment [4] is T4, MAPKAPK3 (Homo sapiens, UniProt Q16644).
T4 construct: purchased Nanosyn (enzymatic panel); SGC in-house recombinant human kinases (DSF panel); Invitrogen (ALK1-6)
The essentials: as §1

Experiment [5] addresses T5, DAPK1 (Homo sapiens, UniProt P53355).
T5 construct: purchased Nanosyn (enzymatic panel); SGC in-house recombinant human kinases (DSF panel); Invitrogen (ALK1-6)
The method in brief: as §1

In experiment [6] the target is T6, KDR (Homo sapiens, UniProt P35968).
T6 construct: purchased Nanosyn (enzymatic panel); SGC in-house recombinant human kinases (DSF panel); Invitrogen (ALK1-6)
The essentials: as §1

In experiment [7] the target is T7, ROCK2 (Homo sapiens, UniProt O75116).
T7 construct: purchased Nanosyn (enzymatic panel); SGC in-house recombinant human kinases (DSF panel); Invitrogen (ALK1-6)
The essentials:
as §1

The target in experiment [8] is T8, ERBB4 (Homo sapiens, UniProt Q15303).
T8 construct: purchased Nanosyn (enzymatic panel); SGC in-house recombinant human kinases (DSF panel); Invitrogen (ALK1-6)
The essentials: as §1

In experiment [9] the target is T9, TSSK1 (Homo sapiens, UniProt Q9BXA7).
T9 construct: purchased Nanosyn (enzymatic panel); SGC in-house recombinant human kinases (DSF panel); Invitrogen (ALK1-6)
T9 sequence (Q9BXA7 1-367): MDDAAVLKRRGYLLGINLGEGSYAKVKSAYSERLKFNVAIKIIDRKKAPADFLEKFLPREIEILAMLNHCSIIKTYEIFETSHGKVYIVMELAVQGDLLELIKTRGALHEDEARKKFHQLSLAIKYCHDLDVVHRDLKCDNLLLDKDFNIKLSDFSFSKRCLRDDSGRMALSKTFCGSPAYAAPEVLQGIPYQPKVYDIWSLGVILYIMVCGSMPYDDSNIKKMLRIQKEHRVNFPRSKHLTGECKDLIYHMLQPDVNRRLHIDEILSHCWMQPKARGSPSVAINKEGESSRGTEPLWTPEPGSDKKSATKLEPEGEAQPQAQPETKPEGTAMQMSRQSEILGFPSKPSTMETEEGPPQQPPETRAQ
The essentials:
as §1

Experiment [10] has as its target T10, FGFR4 (Homo sapiens, UniProt P22455).
T10 construct: purchased Nanosyn (enzymatic panel); SGC in-house recombinant human kinases (DSF panel); Invitrogen (ALK1-6)
The method in brief: as §1

The target in experiment [11] is T11, ZAP70 (Homo sapiens, UniProt P43403).
T11 construct: purchased Nanosyn (enzymatic panel); SGC in-house recombinant human kinases (DSF panel); Invitrogen (ALK1-6)
T11 sequence (P43403 1-619): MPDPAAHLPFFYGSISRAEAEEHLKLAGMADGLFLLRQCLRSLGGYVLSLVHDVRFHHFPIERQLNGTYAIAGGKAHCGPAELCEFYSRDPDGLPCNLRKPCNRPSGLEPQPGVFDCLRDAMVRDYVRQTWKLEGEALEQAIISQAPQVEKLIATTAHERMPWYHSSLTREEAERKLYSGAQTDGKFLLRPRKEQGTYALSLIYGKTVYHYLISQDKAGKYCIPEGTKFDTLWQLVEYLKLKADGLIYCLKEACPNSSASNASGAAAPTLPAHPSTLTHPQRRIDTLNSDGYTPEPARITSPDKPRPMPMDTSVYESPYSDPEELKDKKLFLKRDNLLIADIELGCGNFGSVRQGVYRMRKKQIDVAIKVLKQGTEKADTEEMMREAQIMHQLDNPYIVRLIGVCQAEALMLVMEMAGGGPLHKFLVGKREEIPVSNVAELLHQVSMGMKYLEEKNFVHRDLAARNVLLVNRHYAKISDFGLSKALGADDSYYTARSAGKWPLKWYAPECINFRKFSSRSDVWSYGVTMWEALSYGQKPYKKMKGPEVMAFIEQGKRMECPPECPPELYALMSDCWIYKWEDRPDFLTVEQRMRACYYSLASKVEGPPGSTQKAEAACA
The essentials: as §1

Experiment [12] addresses T12, P38α (Homo sapiens, UniProt Q16539).
T12 construct: purchased Nanosyn (enzymatic panel); SGC in-house recombinant human kinases (DSF panel); Invitrogen (ALK1-6)
The method in brief: as §1

T1 sequence (Q9HC98 whole entry): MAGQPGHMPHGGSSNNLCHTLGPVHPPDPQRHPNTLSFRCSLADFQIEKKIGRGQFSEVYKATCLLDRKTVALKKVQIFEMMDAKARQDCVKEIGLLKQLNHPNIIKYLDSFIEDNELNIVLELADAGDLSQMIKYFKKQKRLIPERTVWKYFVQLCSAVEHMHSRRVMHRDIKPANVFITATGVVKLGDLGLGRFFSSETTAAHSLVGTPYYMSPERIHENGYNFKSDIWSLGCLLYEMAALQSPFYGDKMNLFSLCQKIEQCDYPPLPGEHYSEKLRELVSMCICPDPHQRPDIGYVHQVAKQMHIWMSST
T6 sequence (P35968 20-1356): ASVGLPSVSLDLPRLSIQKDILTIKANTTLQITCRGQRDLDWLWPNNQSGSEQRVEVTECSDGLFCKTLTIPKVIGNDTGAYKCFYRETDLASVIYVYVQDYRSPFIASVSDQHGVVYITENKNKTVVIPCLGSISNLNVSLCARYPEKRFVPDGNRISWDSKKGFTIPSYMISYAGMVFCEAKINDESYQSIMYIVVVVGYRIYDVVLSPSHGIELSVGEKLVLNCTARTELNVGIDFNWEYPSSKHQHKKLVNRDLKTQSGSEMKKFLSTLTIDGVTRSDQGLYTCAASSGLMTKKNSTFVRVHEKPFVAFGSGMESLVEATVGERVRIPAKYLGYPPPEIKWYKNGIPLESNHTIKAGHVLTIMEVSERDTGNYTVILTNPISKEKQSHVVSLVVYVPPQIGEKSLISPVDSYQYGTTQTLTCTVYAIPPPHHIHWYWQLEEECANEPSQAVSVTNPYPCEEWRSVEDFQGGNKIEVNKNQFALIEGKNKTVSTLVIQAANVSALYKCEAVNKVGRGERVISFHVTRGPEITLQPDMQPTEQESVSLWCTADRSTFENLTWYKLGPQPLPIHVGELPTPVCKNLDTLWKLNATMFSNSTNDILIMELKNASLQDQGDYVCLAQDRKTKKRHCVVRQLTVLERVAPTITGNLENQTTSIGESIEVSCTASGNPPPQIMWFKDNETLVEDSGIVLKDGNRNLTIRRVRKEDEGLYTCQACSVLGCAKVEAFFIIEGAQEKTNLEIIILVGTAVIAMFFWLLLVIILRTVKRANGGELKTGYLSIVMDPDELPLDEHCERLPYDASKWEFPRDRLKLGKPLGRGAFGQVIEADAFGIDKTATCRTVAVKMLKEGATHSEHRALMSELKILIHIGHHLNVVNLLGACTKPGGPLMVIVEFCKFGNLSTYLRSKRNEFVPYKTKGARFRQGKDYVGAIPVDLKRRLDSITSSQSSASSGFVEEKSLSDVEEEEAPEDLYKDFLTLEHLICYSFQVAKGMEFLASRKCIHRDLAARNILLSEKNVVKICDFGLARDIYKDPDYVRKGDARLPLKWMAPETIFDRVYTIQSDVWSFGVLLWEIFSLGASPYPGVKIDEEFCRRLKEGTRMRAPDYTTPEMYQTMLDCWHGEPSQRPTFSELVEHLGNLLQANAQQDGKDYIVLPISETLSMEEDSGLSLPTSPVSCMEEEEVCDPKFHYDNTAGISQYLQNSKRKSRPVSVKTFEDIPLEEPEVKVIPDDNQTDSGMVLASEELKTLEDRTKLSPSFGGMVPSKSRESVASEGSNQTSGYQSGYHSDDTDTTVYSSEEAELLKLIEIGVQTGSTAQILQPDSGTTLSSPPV
T4 sequence (Q16644 whole entry): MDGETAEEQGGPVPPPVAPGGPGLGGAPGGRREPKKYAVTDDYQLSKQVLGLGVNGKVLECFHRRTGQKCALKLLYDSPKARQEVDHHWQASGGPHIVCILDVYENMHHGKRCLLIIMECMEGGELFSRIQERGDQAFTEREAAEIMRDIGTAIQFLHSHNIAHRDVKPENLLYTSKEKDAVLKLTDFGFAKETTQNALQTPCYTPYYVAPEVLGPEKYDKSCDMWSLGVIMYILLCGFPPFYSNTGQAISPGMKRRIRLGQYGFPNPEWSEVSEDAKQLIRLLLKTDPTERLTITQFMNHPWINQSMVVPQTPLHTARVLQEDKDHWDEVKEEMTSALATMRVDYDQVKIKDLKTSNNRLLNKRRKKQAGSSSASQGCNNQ
T8 sequence (Q15303 26-1308): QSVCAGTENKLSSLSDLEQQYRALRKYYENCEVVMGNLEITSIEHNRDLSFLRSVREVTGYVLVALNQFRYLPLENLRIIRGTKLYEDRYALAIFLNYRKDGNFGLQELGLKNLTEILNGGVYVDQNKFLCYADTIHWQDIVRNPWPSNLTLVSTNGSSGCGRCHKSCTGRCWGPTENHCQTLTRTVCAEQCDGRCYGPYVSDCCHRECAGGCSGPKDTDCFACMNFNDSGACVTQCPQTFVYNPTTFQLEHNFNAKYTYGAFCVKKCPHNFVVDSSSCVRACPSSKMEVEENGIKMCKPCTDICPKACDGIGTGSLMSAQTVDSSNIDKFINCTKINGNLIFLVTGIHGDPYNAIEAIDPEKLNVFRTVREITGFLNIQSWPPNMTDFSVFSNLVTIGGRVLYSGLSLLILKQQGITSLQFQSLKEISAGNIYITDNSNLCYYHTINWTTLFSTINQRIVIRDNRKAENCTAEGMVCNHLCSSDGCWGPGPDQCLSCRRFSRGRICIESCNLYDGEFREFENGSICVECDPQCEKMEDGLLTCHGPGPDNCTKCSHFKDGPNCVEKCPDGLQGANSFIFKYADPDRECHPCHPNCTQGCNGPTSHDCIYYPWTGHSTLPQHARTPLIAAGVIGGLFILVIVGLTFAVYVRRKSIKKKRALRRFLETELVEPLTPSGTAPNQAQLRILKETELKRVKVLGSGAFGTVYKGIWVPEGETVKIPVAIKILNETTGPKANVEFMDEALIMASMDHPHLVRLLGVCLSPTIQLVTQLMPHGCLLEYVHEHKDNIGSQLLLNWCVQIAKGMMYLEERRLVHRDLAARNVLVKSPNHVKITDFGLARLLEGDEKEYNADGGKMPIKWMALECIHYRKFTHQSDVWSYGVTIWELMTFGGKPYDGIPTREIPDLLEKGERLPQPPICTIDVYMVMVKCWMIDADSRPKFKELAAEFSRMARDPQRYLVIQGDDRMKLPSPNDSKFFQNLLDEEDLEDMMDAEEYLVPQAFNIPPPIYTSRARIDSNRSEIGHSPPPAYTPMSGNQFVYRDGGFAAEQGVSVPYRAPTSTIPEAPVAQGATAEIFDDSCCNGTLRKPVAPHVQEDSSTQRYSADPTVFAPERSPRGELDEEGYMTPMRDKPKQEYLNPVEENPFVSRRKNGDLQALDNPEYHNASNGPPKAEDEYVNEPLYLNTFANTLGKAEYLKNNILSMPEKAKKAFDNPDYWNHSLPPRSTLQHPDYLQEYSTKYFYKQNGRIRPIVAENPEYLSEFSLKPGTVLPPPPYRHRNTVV
T10 sequence (P22455 22-802): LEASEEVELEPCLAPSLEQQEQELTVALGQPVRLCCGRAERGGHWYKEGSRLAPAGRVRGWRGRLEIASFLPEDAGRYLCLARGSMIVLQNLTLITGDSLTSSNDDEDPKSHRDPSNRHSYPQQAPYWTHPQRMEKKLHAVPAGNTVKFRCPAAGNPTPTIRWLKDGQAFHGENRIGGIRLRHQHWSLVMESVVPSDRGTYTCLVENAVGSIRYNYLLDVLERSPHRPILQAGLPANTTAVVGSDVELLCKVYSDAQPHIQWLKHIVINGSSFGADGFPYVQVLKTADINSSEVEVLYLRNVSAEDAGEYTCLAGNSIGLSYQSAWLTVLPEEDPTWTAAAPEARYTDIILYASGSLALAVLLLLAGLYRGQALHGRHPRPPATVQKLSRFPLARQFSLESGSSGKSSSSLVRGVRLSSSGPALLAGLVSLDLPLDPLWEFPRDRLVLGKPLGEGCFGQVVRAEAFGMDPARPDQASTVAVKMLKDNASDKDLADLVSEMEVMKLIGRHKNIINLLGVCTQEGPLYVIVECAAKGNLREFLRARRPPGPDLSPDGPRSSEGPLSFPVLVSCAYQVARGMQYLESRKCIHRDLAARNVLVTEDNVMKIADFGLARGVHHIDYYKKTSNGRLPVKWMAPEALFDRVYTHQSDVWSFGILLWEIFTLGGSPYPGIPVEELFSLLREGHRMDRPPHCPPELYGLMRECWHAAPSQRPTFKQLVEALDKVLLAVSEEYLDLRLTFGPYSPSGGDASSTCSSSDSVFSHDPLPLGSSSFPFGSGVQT
T12 sequence (Q16539 whole entry): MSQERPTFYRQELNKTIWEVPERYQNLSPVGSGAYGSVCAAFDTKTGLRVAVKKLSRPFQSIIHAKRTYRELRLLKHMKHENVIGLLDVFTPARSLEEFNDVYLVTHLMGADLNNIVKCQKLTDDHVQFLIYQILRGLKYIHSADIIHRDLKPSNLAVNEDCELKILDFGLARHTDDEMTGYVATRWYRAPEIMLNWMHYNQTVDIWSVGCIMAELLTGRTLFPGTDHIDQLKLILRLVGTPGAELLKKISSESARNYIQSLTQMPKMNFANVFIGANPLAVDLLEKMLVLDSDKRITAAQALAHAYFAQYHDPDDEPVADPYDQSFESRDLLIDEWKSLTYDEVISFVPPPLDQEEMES
T3 sequence (Q16816 whole entry): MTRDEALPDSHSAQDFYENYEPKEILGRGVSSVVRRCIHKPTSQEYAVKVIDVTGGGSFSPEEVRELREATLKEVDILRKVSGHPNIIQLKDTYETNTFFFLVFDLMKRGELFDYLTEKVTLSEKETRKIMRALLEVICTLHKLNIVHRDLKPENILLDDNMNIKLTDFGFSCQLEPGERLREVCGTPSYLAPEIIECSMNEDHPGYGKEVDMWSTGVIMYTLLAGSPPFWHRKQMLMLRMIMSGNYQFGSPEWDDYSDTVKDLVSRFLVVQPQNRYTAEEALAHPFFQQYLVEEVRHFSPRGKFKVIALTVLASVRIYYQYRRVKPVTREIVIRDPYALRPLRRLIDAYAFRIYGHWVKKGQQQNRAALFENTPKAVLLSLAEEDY

Broadly, the inhibition is the relative decrease from the control value, in per cent. In the case of `COc1cc(-c2cc(-c3cccc(O)c3)cnc2N)cc(OC)c1OC` [K02288, 3-[6-amino-5-(3,4,5-trimethoxy-phenyl)-pyridin-3-yl]-phenol], the inhibition at 0.1 µM was -2% in [1]; 5.3% in experiment [2]; 1.8% in experiment [3]; -1% in experiment [4]; -1% in experiment [5]; 0.5% in experiment [6]. Besides, the inhibition at 0.1 µM in experiment [7] is -1%; in experiment [8], -5%; in [9], -1%; in [10] it was 4%; in experiment [11] it was -2%; in experiment [12], -3%. The inhibition at 1 µM is -1% in experiment [1]; -2% in experiment [2]; 4.4% in experiment [3]; -2% in [4]; -1% in experiment [5]; 3.9% in experiment [6]. Further, the inhibition at 1 µM in experiment [7] was 0.8%; in experiment [8], 0.9%; in [9], -2%; in experiment [10], 0%; in [11], 1%; in experiment [12], 1.5%.

On to `c1ccc2c(-c3cnn4cc(-c5ccc(N6CCNCC6)cc5)cnc34)ccnc2c1` [LDN-193189], for which the inhibition at 0.1 µM was 2.3% in [1]; 1.9% in experiment [2]; 5.2% in experiment [3]; 1.6% in [4]; 1.5% in [5]; 19% in experiment [6]. In addition, the inhibition at 0.1 µM in experiment [7] turned out to be 1.4%; in experiment [8], 6.1%; in [9], 3.5%; in experiment [10], 0.3%; in [11] it was 4.7%; in experiment [12], 4.4%. The inhibition at 1 µM in experiment [1] is -1%; in experiment [2], 6.6%; in [3], 27%; in experiment [4], 0.5%; in [5] it was 0.4%; in experiment [6], 69%. The inhibition at 1 µM in experiment [7] was 1.5%; in experiment [8], 11%; in [9], 5.2%; in experiment [10], 2.4%; in experiment [11], 1%; in experiment [12], 3.3%.
